The first experiment deals with C-C chemokine receptor type 5 (Homo sapiens, UniProt P51681).
Chain of C-C chemokine receptor type 5 (P51681 whole entry): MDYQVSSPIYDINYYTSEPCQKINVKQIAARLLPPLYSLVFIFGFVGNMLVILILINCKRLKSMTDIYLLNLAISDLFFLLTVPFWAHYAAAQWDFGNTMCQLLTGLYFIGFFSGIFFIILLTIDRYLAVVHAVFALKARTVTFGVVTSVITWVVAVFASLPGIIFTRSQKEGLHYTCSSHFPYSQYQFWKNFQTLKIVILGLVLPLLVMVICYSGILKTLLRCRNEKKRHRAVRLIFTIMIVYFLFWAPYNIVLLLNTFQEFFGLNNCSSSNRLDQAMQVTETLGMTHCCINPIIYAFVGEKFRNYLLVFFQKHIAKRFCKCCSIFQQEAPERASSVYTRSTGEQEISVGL
Assay: not given
The settings on record: hek293. The experiment is classed as cell membranes, Membrane.
Chain of Substance-P receptor (P25103 whole entry): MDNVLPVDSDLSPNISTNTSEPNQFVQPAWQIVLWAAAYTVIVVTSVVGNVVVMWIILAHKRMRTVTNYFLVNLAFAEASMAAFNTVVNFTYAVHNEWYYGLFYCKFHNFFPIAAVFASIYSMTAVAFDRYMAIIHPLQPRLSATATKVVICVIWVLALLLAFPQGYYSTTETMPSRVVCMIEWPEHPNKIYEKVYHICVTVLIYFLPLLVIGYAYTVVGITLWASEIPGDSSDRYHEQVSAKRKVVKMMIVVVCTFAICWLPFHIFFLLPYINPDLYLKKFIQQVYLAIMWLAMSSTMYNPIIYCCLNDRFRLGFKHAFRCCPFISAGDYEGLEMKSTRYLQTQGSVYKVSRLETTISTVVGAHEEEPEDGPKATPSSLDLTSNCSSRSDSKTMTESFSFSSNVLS
With `OCc1ccccc1` [BENZYL ALCOHOL], the IC50 entry was “Not Active”.

As for `C=C1C(=O)O[C@@H]2C3O[C@]3(C)CC/C=C(\C)CC[C@@H]12` (stereo partly drawn), the IC50 result was “Not Active”.

For `CCOC(=O)c1ccc(N)cc1` [BENZOCAINE], the IC50 result is listed as “Not Active”.

Another experiment addresses T1, Angiotensin-converting enzyme (Oryctolagus cuniculus, UniProt P12822).
T1 sequence (P12822 whole entry): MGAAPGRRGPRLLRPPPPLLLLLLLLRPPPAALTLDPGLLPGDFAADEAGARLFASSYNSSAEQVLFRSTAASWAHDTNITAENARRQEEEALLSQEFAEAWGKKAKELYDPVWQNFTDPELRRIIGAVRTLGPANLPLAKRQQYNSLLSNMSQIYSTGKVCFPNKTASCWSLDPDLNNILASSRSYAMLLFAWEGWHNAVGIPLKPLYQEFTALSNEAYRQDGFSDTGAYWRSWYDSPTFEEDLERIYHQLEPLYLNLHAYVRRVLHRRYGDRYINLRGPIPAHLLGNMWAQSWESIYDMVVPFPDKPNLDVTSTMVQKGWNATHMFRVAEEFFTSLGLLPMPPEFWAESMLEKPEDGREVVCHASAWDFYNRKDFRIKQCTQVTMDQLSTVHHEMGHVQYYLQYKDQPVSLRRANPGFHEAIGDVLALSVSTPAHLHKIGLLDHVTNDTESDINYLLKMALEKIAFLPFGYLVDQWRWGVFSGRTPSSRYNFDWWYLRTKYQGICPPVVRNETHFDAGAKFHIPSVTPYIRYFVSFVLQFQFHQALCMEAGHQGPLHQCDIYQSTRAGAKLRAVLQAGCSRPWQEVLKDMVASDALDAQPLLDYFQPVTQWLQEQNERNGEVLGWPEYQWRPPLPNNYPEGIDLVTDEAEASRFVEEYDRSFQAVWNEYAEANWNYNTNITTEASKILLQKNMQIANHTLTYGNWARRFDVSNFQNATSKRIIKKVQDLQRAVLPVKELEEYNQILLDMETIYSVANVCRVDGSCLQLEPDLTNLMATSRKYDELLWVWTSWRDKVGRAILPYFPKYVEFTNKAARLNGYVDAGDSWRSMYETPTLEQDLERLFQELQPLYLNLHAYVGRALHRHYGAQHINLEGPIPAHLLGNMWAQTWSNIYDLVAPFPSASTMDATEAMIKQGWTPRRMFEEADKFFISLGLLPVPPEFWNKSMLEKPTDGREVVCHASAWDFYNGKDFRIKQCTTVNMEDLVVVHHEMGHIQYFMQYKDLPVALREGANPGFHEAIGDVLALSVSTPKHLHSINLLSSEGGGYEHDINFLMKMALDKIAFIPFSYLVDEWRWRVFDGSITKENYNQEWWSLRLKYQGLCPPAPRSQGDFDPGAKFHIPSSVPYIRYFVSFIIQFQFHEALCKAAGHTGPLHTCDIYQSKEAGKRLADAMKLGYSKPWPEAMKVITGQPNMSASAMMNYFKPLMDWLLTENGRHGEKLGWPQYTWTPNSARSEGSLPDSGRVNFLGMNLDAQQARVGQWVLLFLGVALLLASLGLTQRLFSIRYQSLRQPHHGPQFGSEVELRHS
As to the kind of experiment: biochemical. The experiment is classed as tissue-based, Lung.
Conditions: not given
On to `OCc1ccccc1` [BENZYL ALCOHOL], for which the IC50 entry is given as “Not Active”.

As to `C=C1C(=O)O[C@@H]2C3O[C@]3(C)CC/C=C(\C)CC[C@@H]12` (stereo partly drawn), the IC50 result was “Not Active”.

As for `CCOC(=O)c1ccc(N)cc1` [BENZOCAINE], the IC50 entry was “Not Active”.

The target in the next experiment is T2, Calcitonin receptor (Homo sapiens, UniProt P30988). Note: in other assays of this panel Not Active means under 50% inhibition at 10 µM.
T2 sequence (P30988 whole entry): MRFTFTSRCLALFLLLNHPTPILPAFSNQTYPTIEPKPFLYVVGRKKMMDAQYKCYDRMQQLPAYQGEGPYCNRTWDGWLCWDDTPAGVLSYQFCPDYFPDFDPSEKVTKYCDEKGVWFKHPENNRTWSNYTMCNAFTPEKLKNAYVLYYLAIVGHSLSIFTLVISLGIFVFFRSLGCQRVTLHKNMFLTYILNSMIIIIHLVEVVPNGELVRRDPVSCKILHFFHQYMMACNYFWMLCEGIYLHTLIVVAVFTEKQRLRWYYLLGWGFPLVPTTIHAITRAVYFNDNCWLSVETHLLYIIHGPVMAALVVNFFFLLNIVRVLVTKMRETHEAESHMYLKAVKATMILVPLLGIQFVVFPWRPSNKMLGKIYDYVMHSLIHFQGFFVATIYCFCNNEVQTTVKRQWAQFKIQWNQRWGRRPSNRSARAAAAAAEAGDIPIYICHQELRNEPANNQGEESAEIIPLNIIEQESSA
Assay: not given
It counts as cell membranes, Membrane. The following applies: t47d.
For `OCc1ccccc1` [BENZYL ALCOHOL], the IC50 result is “Not Active”.

With `C=C1C(=O)O[C@@H]2C3O[C@]3(C)CC/C=C(\C)CC[C@@H]12` (stereo partly drawn), the IC50 entry is listed as “Not Active”.

For the compound `CCOC(=O)c1ccc(N)cc1` [BENZOCAINE], the IC50 result is “Not Active”.

The next experiment deals with Mitogen-activated protein kinase 3 (Homo sapiens, UniProt P27361). Nature of the experiment: DRUGMATRIX: Protein Serine/Threonine Kinase, ERK1 enzyme inhibition (substrate: Myelin Basic Protein). On the set-up: species or system Escherichia coli. The following applies: Not Active = under 50% inhibition at 10 µM.
Chain of Mitogen-activated protein kinase 3 (P27361 whole entry): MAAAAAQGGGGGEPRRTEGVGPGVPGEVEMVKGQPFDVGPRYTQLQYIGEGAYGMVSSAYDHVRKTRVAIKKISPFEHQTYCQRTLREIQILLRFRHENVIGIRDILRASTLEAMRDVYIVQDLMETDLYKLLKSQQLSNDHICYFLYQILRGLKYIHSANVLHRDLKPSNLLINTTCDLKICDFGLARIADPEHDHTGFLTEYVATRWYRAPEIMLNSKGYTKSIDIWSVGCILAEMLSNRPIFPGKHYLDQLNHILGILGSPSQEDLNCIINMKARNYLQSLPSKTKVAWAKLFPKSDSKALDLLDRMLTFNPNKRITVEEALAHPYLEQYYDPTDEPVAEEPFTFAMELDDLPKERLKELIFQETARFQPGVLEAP
In the case of `OCc1ccccc1` [BENZYL ALCOHOL], the IC50 result was “Not Active”.

In the case of `C=C1C(=O)O[C@@H]2C3O[C@]3(C)CC/C=C(\C)CC[C@@H]12` (stereo partly drawn), the IC50 entry is “Not Active”.

For `CCOC(=O)c1ccc(N)cc1` [BENZOCAINE], the IC50 result was “Not Active”.

Tested on in a further experiment: not listed separately
Nature of the experiment: DRUGMATRIX: Potassium Channel [KATP] radioligand binding (ligand: [3H] Glyburide). The experiment is classed as cell membranes, Membrane. The following applies: hit-t15; Not Active = under 50% inhibition at 10 µM.
Consider `OCc1ccccc1` [BENZYL ALCOHOL], for which the IC50 result was “Not Active” and the Ki result was “Not Active”.

Regarding `C=C1C(=O)O[C@@H]2C3O[C@]3(C)CC/C=C(\C)CC[C@@H]12` (stereo partly drawn), the IC50 result was “Not Active” and the Ki entry was “Not Active”.

Consider `CCOC(=O)c1ccc(N)cc1` [BENZOCAINE], for which the IC50 result is “Not Active” and the Ki result is on record as “Not Active”.

Tested on in a further experiment: not listed separately
Nature of the experiment: DRUGMATRIX: GABAA, Muscimol, Central radioligand binding (ligand: [3H] Muscimol). The experiment is classed as cell membranes, Rattus norvegicus, Wistar, Brain, Membrane. The following applies: Not Active = under 50% inhibition at 10 µM.
For the compound `OCc1ccccc1` [BENZYL ALCOHOL], the IC50 result is given as “Not Active” and the Ki entry is given as “Not Active”.

`C=C1C(=O)O[C@@H]2C3O[C@]3(C)CC/C=C(\C)CC[C@@H]12` (stereo partly drawn): the IC50 result is “Not Active” and the Ki entry is “Not Active”.

On to `CCOC(=O)c1ccc(N)cc1` [BENZOCAINE], for which the IC50 entry is given as “Not Active” and the Ki result is on record as “Not Active”.

In the next experiment the target is Glycine receptor (Rattus norvegicus, UniProt P22771+P24524+P07727+P20781). Note: in other assays of this panel Not Active means under 50% inhibition at 10 µM.
Assay: not given
Conditions: not given
The experiment is classed as cell membranes, Wistar, Spinal cord, Membrane.
`OCc1ccccc1` [BENZYL ALCOHOL]: the IC50 result is listed as “Not Active”.

Turning to `C=C1C(=O)O[C@@H]2C3O[C@]3(C)CC/C=C(\C)CC[C@@H]12` (stereo partly drawn), the IC50 entry is reported as “Not Active”.

With `CCOC(=O)c1ccc(N)cc1` [BENZOCAINE], the IC50 result was “Not Active”.

The next experiment concerns the target Substance-P receptor (Homo sapiens, UniProt P25103). Note: in other assays of this panel Not Active means under 50% inhibition at 10 µM.
Assay: not given
The experiment is classed as cell membranes, CHO, Membrane. The following applies: cho.
As for `OCc1ccccc1` [BENZYL ALCOHOL], the IC50 entry is “Not Active”.

As to `C=C1C(=O)O[C@@H]2C3O[C@]3(C)CC/C=C(\C)CC[C@@H]12` (stereo partly drawn), the IC50 result is “Not Active”.

With `CCOC(=O)c1ccc(N)cc1` [BENZOCAINE], the IC50 result was “Not Active”.

Tested on in the next experiment: not listed separately
As to the kind of experiment: DRUGMATRIX: Nicotinic Acetylcholine radioligand binding (ligand: [125I] Epibatidine). The experiment is classed as cell membranes, Membrane. The following applies: imr-32; Not Active = under 50% inhibition at 10 µM.
Take `OCc1ccccc1` [BENZYL ALCOHOL]: the IC50 entry is “Not Active” and the Ki result is given as “Not Active”.

On to `C=C1C(=O)O[C@@H]2C3O[C@]3(C)CC/C=C(\C)CC[C@@H]12` (stereo partly drawn), for which the IC50 result is recorded as “Not Active” and the Ki entry is “Not Active”.

With `CCOC(=O)c1ccc(N)cc1` [BENZOCAINE], the IC50 result is recorded as “Not Active” and the Ki result is “Not Active”.

Another experiment deals with Adenosine receptor A2a (Homo sapiens, UniProt P29274). Nature of the experiment: DRUGMATRIX: Adenosine A2A radioligand binding (ligand: […]). It counts as cell membranes, HEK293, Membrane. The settings on record: hek293; Not Active = under 50% inhibition at 10 µM.
Chain of Adenosine receptor A2a (P29274 whole entry): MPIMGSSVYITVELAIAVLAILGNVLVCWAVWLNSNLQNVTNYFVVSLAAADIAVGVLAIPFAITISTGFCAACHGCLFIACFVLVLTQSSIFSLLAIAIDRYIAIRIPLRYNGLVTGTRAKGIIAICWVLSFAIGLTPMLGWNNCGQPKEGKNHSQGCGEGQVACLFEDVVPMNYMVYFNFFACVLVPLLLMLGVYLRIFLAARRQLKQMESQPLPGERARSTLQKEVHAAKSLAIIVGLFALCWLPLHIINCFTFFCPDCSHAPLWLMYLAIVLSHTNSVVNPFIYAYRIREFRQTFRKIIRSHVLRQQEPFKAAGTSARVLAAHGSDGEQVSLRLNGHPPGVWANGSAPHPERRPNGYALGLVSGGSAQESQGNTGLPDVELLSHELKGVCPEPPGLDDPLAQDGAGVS
`OCc1ccccc1` [BENZYL ALCOHOL]: the IC50 entry is “Not Active”.

Regarding `C=C1C(=O)O[C@@H]2C3O[C@]3(C)CC/C=C(\C)CC[C@@H]12` (stereo partly drawn), the IC50 entry is listed as “Not Active”.

On to `CCOC(=O)c1ccc(N)cc1` [BENZOCAINE], for which the IC50 result is on record as “Not Active”.

Another experiment concerns the target T3, Substance-K receptor (Homo sapiens, UniProt P21452). Note: in other assays of this panel Not Active means under 50% inhibition at 10 µM.
T3 sequence (P21452 whole entry): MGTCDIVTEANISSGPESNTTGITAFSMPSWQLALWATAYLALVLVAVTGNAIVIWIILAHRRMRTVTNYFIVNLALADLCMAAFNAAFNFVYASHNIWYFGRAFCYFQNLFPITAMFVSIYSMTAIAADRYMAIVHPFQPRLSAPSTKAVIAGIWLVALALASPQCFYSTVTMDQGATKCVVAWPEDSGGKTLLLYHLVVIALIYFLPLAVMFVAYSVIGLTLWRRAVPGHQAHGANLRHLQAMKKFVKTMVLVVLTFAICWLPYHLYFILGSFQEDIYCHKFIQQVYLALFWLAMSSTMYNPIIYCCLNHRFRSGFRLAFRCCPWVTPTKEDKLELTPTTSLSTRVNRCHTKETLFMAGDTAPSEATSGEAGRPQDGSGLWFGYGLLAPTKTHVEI
Assay: not given
The experiment is classed as cell membranes, CHO, Membrane. The following applies: cho.
Turning to `OCc1ccccc1` [BENZYL ALCOHOL], the IC50 entry is “Not Active”.

As for `C=C1C(=O)O[C@@H]2C3O[C@]3(C)CC/C=C(\C)CC[C@@H]12` (stereo partly drawn), the IC50 result is “Not Active”.

In the case of `CCOC(=O)c1ccc(N)cc1` [BENZOCAINE], the IC50 result was “Not Active”.

Tested on in another experiment: not listed separately
As to the kind of experiment: DRUGMATRIX: Interleukin IL-1 radioligand binding (ligand: [125I] interleukin 1beta). It counts as cell membranes, Membrane. The settings on record: nih3t3; Not Active = under 50% inhibition at 10 µM.
On to `OCc1ccccc1` [BENZYL ALCOHOL], for which the IC50 entry was “Not Active” and the Ki result was “Not Active”.

Regarding `C=C1C(=O)O[C@@H]2C3O[C@]3(C)CC/C=C(\C)CC[C@@H]12` (stereo partly drawn), the IC50 entry is on record as “Not Active” and the Ki result is “Not Active”.

Take `CCOC(=O)c1ccc(N)cc1` [BENZOCAINE]: the IC50 result is recorded as “Not Active” and the Ki result was “Not Active”.
